Columns and labels:
Type in all cases: cell-based
[1] = system: senescent HEPG2 cells; assay: Senescence assay: viability of senescent HEPG2 cells; details: Homo sapiens, 24-72 hours incubation, viability by CellTiter-Glo or XTT, read-out: Absolute IC50 average HEPG2_SEN IC50
Method in brief: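 A549 and HEPG2 cells made senescent by sublethal chemotherapy (bleomycin, gemcitabine, doxorubicin or 5-fluorouridine) plus recovery, verified by low EdU and high SA-β-Gal. Ten-point duplicate dosing for 24-72 h; viability by CellTiter-Glo or XTT versus untreated cells; absolute IC50 from four-parameter Hill fit.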

[2] = system: senescent A549 cells; assay: Senescence assay: viability of senescent A549 cells; details: Homo sapiens, 24-72 hours incubation, viability by CellTiter-Glo or XTT, read-out: Absolute IC50 average A549_SEN IC50
Protocol: Cells were maintained in DMEM media (high glucose, 4 mM L-glutamine, no sodium pyruvate) supplemented with 10% fetal bovine serum in a humidified incubator at 37° C. with 5% carbon dioxide. Senescence was induced via treatment with a sublethal concentration of chemotherapy (bleomycin, gemcitabine, doxorubicin, 5-fluorouridine), followed by a rest period without chemotherapy similarly to what is reported by others in the field (e.g., Aoshiba et al., 2003 Eur Respir J 22:436-443). Senescence was qualified by low EdU (5-ethynyl-2′-deoxyuridine) incorporation and high SA-β-Gal (senescence-associated beta-galactosidase) staining compared to proliferating untreated cells. Senescent cells were plated into 96-well plates at a density of 5-15,000 cells/well. The next day, compounds were added in duplicate across ten different concentrations spanning roughly four Log10 units. Cells were incubated with the compounds for 24-72 hours, at which point viability was quantified using CellTiter-Glo (Promega) or XTT (R&D Systems). The viability for treated cells was determined relative to untreated control cells. The log of the compound concentration vs. normalized mean viability was fit to a four parameters Hill function with variable slope. The bottom was constrained to be greater than zero. The X mean value for Y=50 was interpolated to determine the absolute IC50. The results in Table 2 indicate that many of the compounds are active in cells and can induce a dose dependent decrease in the viability of senescent HEPG2 and A549 cells.

[3] = system: senescent normal human dermal fibroblasts; assay: Rescue of compound-induced cell death by ferrostatin-1 in senescent fibroblasts; details: compounds at 1.11 μM, ferrostatin-1 at 0.375 and 6 μM; 24 hours; CellTiter-Glo
From the text: Cell death induced by ferroptosis-inducing agents can be characterized by rescuing the cellular response with radical trapping agents that prevent the accumulation of phospholipid hydroperoxides (Stockwell et al., Cell Chem Biol 2020 27 (4): 365-375). As such, ferrostatin-1 was identified as a potent inhibitor of ferroptosis for which a free radical trapping mechanism had been reported (Skouta et al., J Am Chem Soc 2014 136 (12): 4551-6; Zika et al., ACS Cent Sci. 2017 3 (3): 232-243; and Miotto et al., Redox Biol. 2020; 101328). To determine whether compounds 18 and 32 induce ferroptosis in senescent cells, normal human dermal fibroblasts were induced to undergo senescence by treatment with a sublethal concentration of chemotherapy (bleomycin sulfate), followed by a rest period without chemotherapy similarly to previous reports (Aoshiba et al., 2003 3:436-43). Cells were maintained in DMEM media (high glucose, 4 mM L-glutamine, no sodium pyruvate) supplemented with 10% heat-inactivated fetal bovine serum in a humidified incubator at 37° C. with 5% carbon dioxide and 5% oxygen. Cellular senescence was qualified by reduced EdU (5-ethynyl-2′-deoxyuridine) incorporation and increased SA-β-Gal (senescence-associated beta-galactosidase) staining compared to proliferating untreated cells. Senescent fibroblasts were plated into 96-well plates at a density of 10,000 cells per well. The next day, ferrostatin-1 was diluted in cell medium to reach a final concentration of 0.375 and 6 μM and was added to cells. Approximately 30 minutes after the addition of ferrostatin-1, compounds 18 and 32 at 1.11 μM, or the peptidyl transfer inhibitor puromycin at 10 μM were added to cells. Cells were incubated with the compounds for 24 hours, at which point viability was quantified using the CellTiter-Glo assay (Promega). The viability for treated cells was determined relative to untreated control cells.

[4] = target: T1, GPX4 (Homo sapiens, UniProt P36969); assay: Competitive binding to GPX4 in A549 cells with biotinylated analog, streptavidin pull-down; design: host or cells: A549; details: 2 μM for 2 hours before 2 μM compound 21 for 5 hours
T1 sequence (P36969 1-197): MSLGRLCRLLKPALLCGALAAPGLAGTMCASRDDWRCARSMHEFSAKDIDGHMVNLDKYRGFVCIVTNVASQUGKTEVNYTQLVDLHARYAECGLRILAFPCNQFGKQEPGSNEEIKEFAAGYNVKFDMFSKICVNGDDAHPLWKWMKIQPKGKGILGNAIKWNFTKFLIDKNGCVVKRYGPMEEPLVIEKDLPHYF
Protocol: Binding of compounds 32 and 69 to the target protein GPX4 in cultured cells can be assessed by the use of biotinylated analogs such as compound 21 that retain their cellular activities. Cells or tissue simultaneously or sequentially exposed to compounds 32 and 69 and biotinylated analog 21 can be analyzed for exogenous biotinylated proteins and thereby enables the identification of cellular targets of compounds 32 and 69. The A549 cancer cell line (ATCC) was exposed to 2 μM of compounds 32 and 69 for 2 hours followed by the addition of 2 μM of compound 21 for 5 hours. Cells were collected and lysed by IGEPAL CA-630 and sodium dodecyl sulfate (SDS) in the presence of a protease inhibitor cocktail (4693132001, Roche). The soluble protein fraction was isolated and incubated with Streptavidin Mag Sepharose (28-9857-38, Cytiva) at 4° C. for 16 hours. The streptavidin-unbound fraction was collected allowing for the quantification of the proportion of GPX4 depleted by the biotinylated compound 21 relative to samples not treated with Streptavidin Mag Sepharose. Furthermore, biotinylated proteins were eluted from Streptavidin Mag Sepharose by head-denaturation in the presence of excess biotin (5 mM). […] Chemiluminescent following HRP substrate addition (34580, ThermoFisher) was detected by the ChemiDoc XRS+ System (Bio-Rad). […]

| SMILES | IC50 [1] | IC50 [2] | inhibition by ferrostatin-1 of compound-induced cell death [3] | effect of pre-treatment on compound 21 dependent depletion of GPX4 protein [4] |
| --- | --- | --- | --- | --- |
| C#CC(F)(F)[C@]1(O)CC[C@H]2[C@@H]3CCC4=CC(=NOCCO)CCC4=C3[C@@H](c3ccc(C4CC4)cc3)C[C@@]21C [Compound 18, (8S,11R,13S,14S,17S)-11-(4-cyclopropylphenyl)-17-(1,1-difluoroprop-2-yn-1-yl)-17-hydroxy-13-methyl-1,2,6,7,8,11,12,13,14,15,16,17-dodecahydro-3H-cyclopenta[a]phenanthren-3-one O-(2-hydroxyethyl)oxime] | 0.1 to 10 nM | 10 to 100 nM | potently inhibits cell death induced by compounds 18 and 32 | – |
| C#CC(F)(F)[C@]1(O)CC[C@H]2[C@@H]3CCC4=C/C(=N/NC(=O)NC5CC5)CCC4=C3[C@@H](c3ccc(C4CC4)cc3)C[C@@]21C [Compound 69, (E)-N-cyclopropyl-2-((8S,11R,13S,14S,17S)-11-(4-cyclopropylphenyl)-17-(1,1-difluoroprop-2-yn-1-yl)-17-hydroxy-13-methyl-1,2,6,7,8,11,12,13,14,15,16,17-dodecahydro-3H-cyclopenta[a]phenanthren-3-ylidene)hydrazine-1-carboxamide] | – | – | – | reduces the compound 21 dependent depletion of GPX4 protein |
